# Laboratory results: US3988462A (priority 1972, dated 1976)
# Read-outs that look alike come from different tables or passages of the source.
# Columns and labels:
# [1] = tested on: Staphylococcus aureus 209P; experiment: microbe, parasite or virus in culture; assay type: cell-based; settings: read-out: Minimum inhibitory concentration
# [2] = tested on: Trychophyton rubrum; experiment: microbe, parasite or virus in culture; assay type: cell-based; settings: read-out: Minimum inhibitory concentration
# [3] = tested on: Mycoplasma pneumoniae; experiment: microbe, parasite or virus in culture; assay type: cell-based; settings: read-out: Minimum inhibitory concentration
# [4] = tested on: Brettanomyces anomalus IFO 0648; experiment: Antimicrobial activity (Table III); assay type: cell-based; settings: IFO0648, Malt Agar (M.A.), read-out: Minimum inhibitory concentration
# Method: (§1) A solution containing Antibiotic TS-885 was prepared as follows to determine the biological activity of Antibiotic TS-885. A 100 mg amount of 3-(5,7-dimethyl-2-hydroxy-4-oxo-6,8-decadienyl)-glutarimide (Antibiotic TS-885) was dissolved in a mixture of 0.6 ml of dimethyl-sulfoxide and 0.02 ml of polyoxyethylene sorbitane monolaurate (EO : 20). A 1.0 ml amount of a stirred saline solution (0.01 M phosphate buffered saline, pH 7.2) was added to the mixture to form a uniform solution which was followed by the addition of 48 ml of the saline solution. By this procedure a stock solution of Antibiotic TS-885 having a concentration of 2 mg/ml was prepared. The stock solution was diluted with the buffer solution for the following tests.
# (§2) The antimicrobial spectra were observed by the pulp disc diffusion method and the agar streak method, and the results are shown in Tables II and III.
# [5] = tested on: Candida alibicans; experiment: Antimicrobial activity (Table III); assay type: cell-based; settings: Sabouraud's agar (S.A.), read-out: Minimum inhibitory concentration
# Method: as §1, §2
# [6] = tested on: Cryptococcus albidus IFO 0378; experiment: Antimicrobial activity (Table III); assay type: cell-based; settings: Naganishia albida, IFO0378; Malt Agar (M.A.); read-out: Minimum inhibitory concentration
# Method: as §1, §2
# [7] = tested on: Hansenula anomala IFO 0118; experiment: Antimicrobial activity (Table III); assay type: cell-based; settings: IFO0118, Malt Agar (M.A.), read-out: Minimum inhibitory concentration
# Method: as §1, §2
# [8] = tested on: Phodotorula glutinis IFO 0754; experiment: Antimicrobial activity (Table III); assay type: cell-based; settings: Malt Agar (M.A.); read-out: Minimum inhibitory concentration
# Method: as §1, §2
# [9] = tested on: R. rubra IFO 0001; experiment: Antimicrobial activity (Table III); assay type: cell-based; settings: Malt Agar (M.A.); read-out: Minimum inhibitory concentration
# Method: as §1, §2
# [10] = tested on: Saccharomyces fragilis IAM 7160; experiment: Antimicrobial activity (Table III); assay type: cell-based; settings: IAM7160, Malt Agar (M.A.), read-out: Minimum inhibitory concentration
# Method: as §1, §2
# [11] = tested on: Saccharomyces rosei AHU 3174; experiment: Antimicrobial activity (Table III); assay type: cell-based; settings: Torulaspora delbrueckii, AHU3174; Malt Agar (M.A.); read-out: Minimum inhibitory concentration
# Method: as §1, §2
# [12] = tested on: Saccharomyces sake HUT 7119; experiment: Antimicrobial activity (Table III); assay type: cell-based; settings: HUT7119, Malt Agar (M.A.), read-out: Minimum inhibitory concentration
# Method: as §1, §2
# [13] = tested on: Torula rubra var alpa; experiment: Antimicrobial activity (Table III); assay type: cell-based; settings: Malt Agar (M.A.), read-out: Minimum inhibitory concentration
# Method: as §1, §2
# [14] = tested on: Candida utilis IFO 0396; experiment: microbe, parasite or virus in culture; assay type: cell-based; settings: Williopsis jadinii, IFO0396; read-out: Minimum inhibitory concentration
# [15] = tested on: Candida tropicalis; experiment: microbe, parasite or virus in culture; assay type: cell-based; settings: read-out: Minimum inhibitory concentration
# [16] = tested on: Candida parapsiiosis IFO 0708; experiment: microbe, parasite or virus in culture; assay type: cell-based; settings: IFO0708, read-out: Minimum inhibitory concentration
# [17] = Cytotoxicity, cylinder method; assay type: cell-based; settings: read-out: Minimum Inhibitory Concentration, cylinder method
# Method: as §1
# (§3) The cytotoxicity of Antibiotic TS-885 against various tissue culture cells was observed by the following two methods:
# a. a cylinder method (on a thin seed plate)
# a. A 10 ml amount of a cell suspension (3 × 10^5 cells/ml) was seeded in a petri dish having a diameter of 90 mm. The plates were incubated in a CO2 incubator at 37° C.
# (§4) After 24 hours, the medium was removed and the plates were overlaid with 5 ml of an agar medium and one cylinder was placed on the medium. A 0.25 ml amount of a test sample was placed in the cylinder. After maintaining the plates for 2 hours at room temperature to diffuse Antibiotic TS-885 into the agar, the plate was incubated in the CO2 incubator at 37° C. After 48 hours, the cytotoxic effect of Antibiotic TS-885 was determined by the size of the diameter of the growth inhibitory zone around the cylinder. (2) In the tube dilution method, 2 × 10^5 cells were inoculated into a small test tube, and the tubes were incubated at 37° C for 24 hours. Solutions containing various concentrations of Antibiotic TS-885 were added to tubes of the cells and reincubated at […]. After 48 hours, the degenerated cells were microscopically observed.
# [18] = Cytotoxicity, tube dilution method; assay type: cell-based; settings: read-out: Minimum Inhibitory Concentration, tube dilution method
# Method: as §1, §3
# b. a tube dilution method
# as §4
# [19] = tested on: poliovirus; assay type: cell-based
# [20] = tested on: poliovirus; experiment: microbe, parasite or virus in culture; assay type: cell-based
# [21] = tested on: Vesicular stomatitis virus; experiment: microbe, parasite or virus in culture; assay type: cell-based
# [22] = tested on: influenza virus-A2 /Kumamoto; assay type: in vivo, mice
# [23] = tested on: mouse ascites tumor cells (Sarcoma 180); experiment: Antitumor effect in mice; assay type: in vivo; settings: intraperitoneally, once daily for six days
# Method: 1,000,000 mouse ascites tumor cells (Sarcoma 180) were transplanted intraperitoneally into mice. 24 Hours after the mice were treated with the transplanted tumor cells, the mice were injected with various doses of the antibiotic once daily for six days intraperitoneally. […] It is that the life span of the antibiotic treated mice was prolonged.
# [24] = Toxicity in mice, repeated intravenous administration; assay type: in vivo; settings: 20 mg/kg per day intravenous, once daily for 10 days (total 200 mg/kg)
# [25] = Solubility; assay type: physicochemical
# [26] = tested on: bacteria; assay type: cell-based
# [27] = tested on: mycoplasma; assay type: cell-based
# [28] = tested on: yeasts; assay type: cell-based
# [29] = Serum concentration after intravenous injection in mice; settings: mouse
# [30] = cited from earlier work
# [31] = chicken, chick embryo fibroblast cells, MEM medium
# [32] = human, hela s3 cells, YLE medium
# [33] = monkey, monkey kidney cells, MEM medium
# [34] = Enterovirus C, read-out: Diameter of plaque free zone
# [35] = Vesicular stomatitis virus, in Gallus gallus, read-out: Diameter of plaque free zone
smiles,measurement,setting,value
"CC=CC(C)=CC(C)C(=O)CC(O)CC1CC(=O)NC(=O)C1 (centres unmarked) [Antibiotic TS-885, 3-(5,7-dimethyl-2-hydroxy-4-oxo-6,8-decadienyl)-glutarimide]",MIC,[1],> 1000 µg/mL
same,MIC,[2],1000 µg/mL
same,MIC,[3],> 1000 µg/mL
same,MIC,[4],> 100 µg/mL
same,MIC,[5],> 100 µg/mL
same,MIC,[6],4 µg/mL
same,MIC,[7],20 µg/mL
same,MIC,[8],100 µg/mL
same,MIC,[9],20 µg/mL
same,MIC,[10],20 µg/mL
same,MIC,[11],100 µg/mL
same,MIC,[12],4 µg/mL
same,MIC,[13],4 µg/mL
same,MIC,[14],100 µg/mL
same,MIC,[15],100 µg/mL
same,MIC,[16],> 100 µg/mL
same,MCC at 48 h,[17]; [31],0.5 µg/mL
same,MCC at 48 h,[17]; [32],0.2 µg/mL
same,MCC at 48 h,[17]; [33],0.2 µg/mL
same,MCC at 48 h,"[17]; mouse, l-cells, YLE medium",0.25 µg/mL
same,MCC at 48 h,[18]; [31],1 µg/mL
same,MCC at 48 h,[18]; [32],0.4 µg/mL
same,MCC at 48 h,"[18]; human, p3 hr-1 cells, MEM medium",0.4 µg/mL
same,MCC at 48 h,[18]; [33],0.4 µg/mL
same,MCC at 48 h,"[18]; mouse, l-cells, YLE medium",0.5 µg/mL
same,Antiviral effect,[19]; 0.5 mcg/ml,Toxic
same,Antiviral effect,[19]; 1 mcg/ml,Toxic
same,Antiviral effect,[19]; 10 mcg/ml,Toxic
same,Antiviral effect,[20]; 12.5 mcg/ml,toxic
same,Antiviral effect,[20]; 25 mcg/ml,toxic
same,zone of inhibition at 0.5 µg/mL,[20]; [34],15 mm
same,zone of inhibition at 1 µg/mL,[20]; [34],19.4 mm
same,zone of inhibition at 5 µg/mL,[20]; [34],25 mm
same,zone of inhibition at 6.25 µg/mL,[20]; [34],28.4 mm
same,zone of inhibition at 12.5 µg/mL,[20]; [34],29.2 mm
same,zone of inhibition at 25 µg/mL,[20]; [34],36 mm
same,Antiviral effect,[21]; 20 mcg/ml,toxic
same,Antiviral effect,[21]; 62.5 mcg/ml,toxic
same,Antiviral effect,[21]; 100 mcg/ml,toxic
same,Antiviral effect,[21]; 125 mcg/ml,toxic
same,Antiviral effect,[21]; 250 mcg/ml,toxic
same,zone of inhibition at 0.3 µg/mL,[21]; [35],15.4 mm
same,zone of inhibition at 0.6 µg/mL,[21]; [35],17.4 mm
same,zone of inhibition at 1.25 µg/mL,[21]; [35],18.1 mm
same,zone of inhibition at 2.5 µg/mL,[21]; [35],18.9 mm
same,zone of inhibition at 5 µg/mL,[21]; [35],19.6 mm
same,zone of inhibition at 10 µg/mL,[21]; [35],22.9 mm
same,zone of inhibition at 20 µg/mL,[21]; [35],26.2 mm
same,zone of inhibition at 62.5 µg/mL,[21]; [35],28.8 mm
same,zone of inhibition at 100 µg/mL,[21]; [35],31.7 mm
same,zone of inhibition at 125 µg/mL,[21]; [35],33.2 mm
same,zone of inhibition at 250 µg/mL,[21]; [35],42 mm
same,Survival / treated × 100 %,"[22]; 7 mg/kg intraperitoneally, survival day 7",100%
same,Survival / treated × 100 %,"[22]; 7 mg/kg intraperitoneally, survival day 10",60%
same,Survival / treated × 100 %,"[22]; 7 mg/kg intraperitoneally, survival day 13",35%
same,Survival / treated × 100 %,"[22]; 7 mg/kg intraperitoneally, survival day 15",35%
same,Survival / treated × 100 %,"[22]; 7 mg/kg intraperitoneally, survival day 20",35%
same,Survival / treated × 100 %,"[22]; 22 mg/kg intraperitoneally, survival day 7",100%
same,Survival / treated × 100 %,"[22]; 22 mg/kg intraperitoneally, survival day 10",80%
same,Survival / treated × 100 %,"[22]; 22 mg/kg intraperitoneally, survival day 13",50%
same,Survival / treated × 100 %,"[22]; 22 mg/kg intraperitoneally, survival day 15",50%
same,Survival / treated × 100 %,"[22]; 22 mg/kg intraperitoneally, survival day 20",50%
same,survival rate,"[22]; 22 mg/kg, day not stated (footnote to Table VIII)",50%
same,growth of the ascites tumor,[23]; 2.5 mg/mouse per day,inhibits growth of the ascites tumor
same,life span of the antibiotic treated mice,[23],prolonged
same,signs of toxicity,[24],No signs of toxicity were observed
same,Solubility,"[25]; acetone, chloroform, benzene, ethylacetate, ethanol, methanol, 1% aqueous sodium hydroxide solution, and pyridine",Soluble
same,Solubility,"[25]; benzene, ethyl acetate, acetone, ethanol 1% NaOH",Soluble
same,Solubility,[25]; ether,Sparingly soluble
same,Solubility,[25]; water,water insoluble
same,Solubility,[25]; water and 5% aqueous hydrochloric acid,Insoluble
same,antibacterial activity,[26],no antibacterial
same,antimycoplasmal activity,[27],no antibacterial and antimycoplasmal activity
same,inhibitory activity against some yeasts,[28],inhibitory activity against some yeasts
same,concentration at 10 min,[29]; 2.5 mg/kg,1800 ng/mL
same,concentration at 0.5 h,[29]; 2.5 mg/kg,580 ng/mL
same,concentration at 10 min,[29]; 25 mg/kg,2900 ng/mL
same,concentration at 0.5 h,[29]; 25 mg/kg,2400 ng/mL
C=C/C(C)=C/[C@H](C)C(=O)C[C@H](O)CC1CC(=O)NC(=O)C1 [Streptimidone],Solubility,"[30]; benzene, ethyl acetate, acetone, ethanol",Soluble
same,Solubility,[30]; water,insoluble
